This passage reports IC50 results from BindingDB's records for doi:10.1016/j.ejmech.2012.02.023 (Sun Yat-Sen University, 2012).

One may read the IC50 as the point on the concentration scale where inhibition reaches its midpoint. Low readings indicate inhibition by little substance, high ones a need for much substance.

This assay can be described thus: Inhibition of TNF-alpha-induced NF-kappaB p65 nuclear translocation in human A549 cells after 2 hrs by fluorescence assay.
Compound `O=C(/C=C/c1ccc(Cl)cc1)c1cccc(-c2cccc(F)c2)c1` had an IC50 of 24.4 µM.

On to `O=C(/C=C/c1cccc(Br)c1)c1cccc(-c2cccc(F)c2)c1`, for which inhibition was half-maximal at 11.2 µM (IC50).

In turn, `COc1ccccc1/C=C/C(=O)c1cccc(-c2cccc(F)c2)c1` displayed an IC50 of 35.3 µM. This IC50 is about 3.2-fold higher than that of the compound before.

The compound `COc1ccc(/C=C/C(=O)c2cccc(-c3cccc(F)c3)c2)cc1` displayed an IC50 of over 50 µM.

`COc1ccc(/C=C/C(=O)c2cccc(-c3cccc(F)c3)c2)cc1OC` registered an IC50 of 33.4 µM. This lies in the double-digit micromolar range.

`COc1cccc(/C=C/C(=O)c2cccc(-c3cccc(F)c3)c2)c1OC` returned an IC50 of 24.1 µM.

On to `COc1cc(/C=C/C(=O)c2cccc(-c3cccc(F)c3)c2)ccc1O`, for which the IC50 was 12.9 µM.

Consider `O=C(/C=C/c1ccccc1Br)c1cccc(-c2cccc(F)c2)c1`, for which the IC50 was 13.7 µM.

Regarding `O=C(/C=C/c1ccc(Br)cc1)c1cccc(-c2cccc(F)c2)c1`, the IC50 was over 50 µM.

For the compound `O=C(/C=C/c1cccc(-c2ccc(F)cc2)c1)c1ccc(F)cc1`, the IC50 is over 50 µM.

With `COc1ccc(/C=C/C(=O)c2ccc(N)c(-c3ccc(F)cc3)c2)cc1`, the IC50 is over 50 µM.

In the case of `COc1ccc(/C=C/C(=O)c2ccc(N)c(-c3ccc(F)cc3)c2)cc1OC`, the IC50 was over 50 µM.

With `COc1ccc(OC)c(/C=C/C(=O)c2ccc(N)c(-c3ccc(F)cc3)c2)c1`, the midpoint of inhibition, the IC50, lay at 10.3 µM.

`COc1cc(/C=C/C(=O)c2ccc(N)c(-c3ccc(F)cc3)c2)ccc1O` registered an IC50 of 6.83 µM.

As to `COc1cc(/C=C/C(=O)c2ccc(N)c(-c3ccc(F)cc3)c2)cc(OC)c1OC`, 11.6 µM corresponded to half-maximal inhibition (IC50).

For the compound `Nc1ccc(C(=O)/C=C/c2ccc(O)c(F)c2)cc1-c1ccc(F)cc1`, the IC50 was over 50 µM.

`COc1cc(/C=C/C(=O)c2ccc(N)c(-c3ccc(F)cc3)c2)cc(Br)c1O` registered an IC50 of over 50 µM.

Turning to `COc1ccc(-c2cc(C(=O)/C=C/c3ccc(F)cc3)ccc2N)cc1OC`, the IC50 came to 21.3 µM. This counts as double-digit micromolar.

Consider `COc1ccc(/C=C/C(=O)c2ccc(N)c(-c3ccc(OC)c(OC)c3)c2)c(OC)c1`, for which the IC50 worked out at 1.7 µM.

`COc1ccc(OC)c(/C=C/C(=O)c2ccc(N)c(-c3ccc(OC)c(OC)c3)c2)c1` showed an IC50 of 3.19 µM.

`COc1ccc(-c2cc(C(=O)/C=C/c3cccc(OC)c3OC)ccc2N)cc1OC` gave an IC50 of 11.9 µM.

`COc1ccc(/C=C/C(=O)c2cccc(Br)c2)cc1`: the IC50 was over 50 µM.

In turn, `COc1ccc(/C=C/C(=O)c2cccc(Br)c2)cc1OC` gave an IC50 of over 50 µM.

For the compound `COc1ccc(/C=C/C(=O)c2cccc(Br)c2)cc1O`, the IC50 is over 50 µM.

Take `COc1ccc(/C=C/C(=O)c2cccc(-c3ccc(F)cc3)c2)cc1`: the IC50 is over 50 µM.

`COc1ccc(/C=C/C(=O)c2cccc(-c3ccc(F)cc3)c2)cc1OC` showed an IC50 of over 50 µM.

Compound `COc1ccc(/C=C/C(=O)c2cccc(-c3cccc(F)c3)c2)cc1O` came in with an IC50 of 9.59 µM.

In turn, `COc1ccc(/C=C/C(=O)c2cccc(-c3ccc(F)nc3)c2)cc1O` yielded an IC50 of over 50 µM.
